Measurements: patent publication US20230293599A1, “BACTERIAL COMPOSITIONS WITH ANTI-INFLAMMATORY ACTIVITY” (Universiteit Gent, priority 2020, published 2023)
Read-outs that look alike come from different tables or passages of the source. Residues, ends and D or L forms follow the SMILES beside them.

Columns and labels:
P. aeruginosa = assay: Biolog Phenotype Microarray PM1-2 growth on carbon sources; type: cell-based, Pseudomonas aeruginosa; details: for growth of P. aeruginosa on the carbon source (in words): AUC lower than 50 = not supporting growth
Summary of the method: (§1)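 Growth on 190 carbon sources in Biolog PM1 and PM2 panels, inoculated per manufacturer's protocol. Growth curves followed for 35 hours by absorbance at 590 nm.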

G. haemolysans = assay: as above; type: cell-based, Gemella haemolysans; details: for growth of G. haemolysans on the carbon source (in words): AUC lower than 50 = not supporting growth
Experimental: (§2) Using Phenotype Microarray (PM) panels (Biolog), the influence of 190 carbon sources on the growth of the potential probiotic species R. mucilaginosa, R. dentocariosa, R. gilardii, G. haemolysans, and common respiratory pathogens P. aeruginosa, and S. aureus was determined. PM1 and PM2 panels (Biolog) were inoculated according to the manufacturer's instructions. Growth curves were generated for 35 hours by measuring the absorbance at 590 nm using an EnVision (Perkin Elmer) plate reader.

S. aureus = type: cell-based, Staphylococcus aureus
Summary of the method: as §1

R. gilardii = assay: Biolog Phenotype Microarray PM1-2 growth on carbon sources; type: cell-based, Roseomonas gilardii
Experimental: as §2

R. dentocariosa = assay: as above; type: cell-based, Rothia dentocariosa
Experimental: as §2

R. mucilaginosa = assay: as above; type: cell-based, Rothia mucilaginosa
Experimental: as §2

[1] = 35 hours, absorbance 590 nm, n = 1, cells without values AUC < 50

| Compound | AUC of growth curve, P. aeruginosa (P. aeruginosa; [1]) | AUC of growth curve, G. haemolysans (G. haemolysans; [1]) | AUC of growth curve, S. aureus (S. aureus) | AUC of growth curve, R. gilardii (R. gilardii; [1]) | AUC of growth curve, R. dentocariosa (R. dentocariosa; [1]) | AUC of growth curve, R. mucilaginosa (R. mucilaginosa; [1]) | also measured |
| --- | --- | --- | --- | --- | --- | --- | --- |
| O=CC[C@H](O)[C@H](O)CO [2-Deoxy-D-Ribose] | 529.9 | 180.3 | 580.2 | 366.7 | 376.6 | – | – |
| O=C(CO)[C@@H](O)[C@H](O)[C@@H](O)C(=O)O [5-Keto-D-Gluconic Acid] | – | – | 432.1 | – | – | – | AUC of growth curve, P. aeruginosa (P. aeruginosa): 1312.5; AUC of growth curve, G. haemolysans (G. haemolysans): 122.8; AUC of growth curve, R. gilardii (R. gilardii): 423.9; AUC of growth curve, R. dentocariosa (R. dentocariosa): 277.0 |
| Nc1ncnc2c1ncn2[C@@H]1O[C@H](CO)[C@@H](O)[C@H]1O [Adenosine] | 398.1 | 65.6 | 472.6 | – | – | – | – |
| O=C[C@@H](O)[C@H](O)[C@H](O)CO [D-Arabinose] | 763.4 | 88.1 | 705.0 | 356.3 | 305.6 | – | – |
| O=C(CO)[C@@H](O)[C@H](O)[C@H](O)COP(=O)(O)O [D-Fructose-6-Phosphate] | 783.8 | 134.2 | 437.8 | – | 87.1 | 127.5 | – |
| O=C(CO)[C@@H](O)[C@H](O)[C@H](O)CO [D-Fructose] | – | – | 992.9 | – | – | – | AUC of growth curve, P. aeruginosa (P. aeruginosa): 413.3; AUC of growth curve, R. mucilaginosa (R. mucilaginosa): 1111.2; AUC of growth curve, G. haemolysans (G. haemolysans): 88.8; AUC of growth curve, R. gilardii (R. gilardii): 315.8; AUC of growth curve, R. dentocariosa (R. dentocariosa): 109.5 |
| N[C@H]1C(O)O[C@H](CO)[C@@H](O)[C@@H]1O (stereo partly drawn) [D-Glucosamine] | 840.0 | 618.4 | 884.6 | 196.5 | 200.6 | – | – |
| O=C[C@@H](O)[C@@H](O)[C@H](O)[C@H](O)CO [D-Mannose] | 495.0 | 218.6 | 729.5 | – | 106.1 | 1017.6 | – |
| O=C[C@H](O)[C@H](O)[C@H](O)CO [D-Ribose] | 1450.3 | 627.5 | 769.0 | 718.5 | 431.1 | 371.4 | – |
| O=C[C@H](O)[C@@H](O)[C@H](O)CO [D-Xylose] | 1218.3 | 581.3 | 92.4 | 310.4 | 257.9 | 157.4 | – |
| NC(=O)[C@@H](O)[C@@H](O)[C@H](O)[C@@H](O)C=O [Glucuronamide] | 820.8 | 97.6 | 62.8 | 53.3 | 124.2 | 84.9 | – |
| C[C@H](N)C(=O)NCC(=O)O [L-Alanyl-Glycine] (H-Ala-Gly-OH) | – | – | 809.1 | – | – | – | AUC of growth curve, P. aeruginosa (P. aeruginosa): 180.2; AUC of growth curve, G. haemolysans (G. haemolysans): 114.6; AUC of growth curve, R. gilardii (R. gilardii): 76.2 |
| O=C[C@H](O)[C@@H](O)[C@@H](O)CO [L-Arabinose] | 1269.0 | 120.4 | 356.7 | 804.7 | 314.8 | 195.3 | – |
| C[C@H](O)[C@@H](O)[C@@H](O)[C@H](O)C=O [L-Fucose] | 701.4 | 95.6 | 277.6 | 86.6 | 478.0 | 155.6 | – |
| O=C[C@H](O)[C@H](O)[C@@H](O)CO [L-Lyxose] | 1393.5 | 430.7 | 308.4 | 765.9 | 474.8 | 377.5 | – |
| O=C(O)C[C@H](O)C(=O)O [L-Malic Acid] | 808.2 | 73.9 | 648.8 | 202.5 | – | – | – |
| COC(=O)C(C)=O [Methyl Pyruvate] | 818.7 | 870.9 | 611.5 | – | 74.1 | – | – |
| CC(=O)N[C@H]1C(O)O[C@H](CO)[C@@H](O)[C@@H]1O (stereo partly drawn) [N-Acetyl-D-Glucosamine] | – | 711.9 | 643.5 | – | – | – | growth of P. aeruginosa on the carbon source (in words) (P. aeruginosa): did not support growth; growth of G. haemolysans on the carbon source (in words) (G. haemolysans): supported growth |
| CC(=O)N[C@H]1[C@@H](O)[C@H](O)[C@@H](CO)O[C@H]1O [N-Acetyl-β-D-Mannosamine] | – | 375.8 | 738.3 | – | – | – | growth of P. aeruginosa on the carbon source (in words) (P. aeruginosa): did not support growth; growth of G. haemolysans on the carbon source (in words) (G. haemolysans): supported growth |
| C/C=C/C=C/C(=O)O [Sorbic Acid] | – | 90.3 | 495.2 | 56.2 | 82.4 | – | – |
| Dextrin | – | 66.1 | – | – | 135.6 | – | growth of P. aeruginosa on the carbon source (in words) (P. aeruginosa): did not support growth; AUC of growth curve, S. aureus (S. aureus; [1]): 908.1; growth of R. dentocariosa on the carbon source (in words) (R. dentocariosa; AUC lower than 50 = not supporting growth): stimulated only the growth |
| Tween 40 | – | 101.2 | 154.9 | – | – | – | – |
